Laboratory results as given in PMC2171038 (Traffic (Copenhagen, Denmark), 2007).

Molecular target: T1, protoporphyrinogen oxidase (Saccharomyces cerevisiae, UniProt P40012)
T1 sequence (P40012 1-539): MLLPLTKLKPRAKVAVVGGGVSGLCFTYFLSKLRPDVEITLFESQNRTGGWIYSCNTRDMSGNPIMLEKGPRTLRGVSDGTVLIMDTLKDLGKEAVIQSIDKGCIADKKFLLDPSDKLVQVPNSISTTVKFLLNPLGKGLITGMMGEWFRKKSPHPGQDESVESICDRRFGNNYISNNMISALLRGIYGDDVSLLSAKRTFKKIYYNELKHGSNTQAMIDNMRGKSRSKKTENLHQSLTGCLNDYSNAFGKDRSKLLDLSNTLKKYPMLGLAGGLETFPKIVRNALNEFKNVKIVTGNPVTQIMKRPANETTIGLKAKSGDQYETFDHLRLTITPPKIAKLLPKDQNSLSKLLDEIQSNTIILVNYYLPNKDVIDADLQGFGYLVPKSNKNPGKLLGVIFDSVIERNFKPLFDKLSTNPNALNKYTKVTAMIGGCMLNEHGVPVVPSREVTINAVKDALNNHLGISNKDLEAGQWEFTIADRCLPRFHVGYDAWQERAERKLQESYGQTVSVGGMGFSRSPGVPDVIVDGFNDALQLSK
Experiment: fluorimetric protoporphyrinogen oxidase activity assay
Format: biochemical

SMILES: CC(=O)N(O)CCCCCNC(=O)CCC(=O)N(O)CCCCCNC(=O)CCC(=O)N(O)CCCCCNC(=O)c1cc(Oc2ccc(C(F)(F)F)cc2Cl)ccc1[N+](=O)[O-] [compound 1, DFOB-AF]
- IC50: ~100 nM
